As usually defined, the Ki is a measure of affinity in units of concentration, obtained from inhibition or displacement.

One test has as its target T1, human GAL3 receptor (Homo sapiens, UniProt O60755).
T1 construct: expressed in transfected cells
T1 sequence (O60755 1-368): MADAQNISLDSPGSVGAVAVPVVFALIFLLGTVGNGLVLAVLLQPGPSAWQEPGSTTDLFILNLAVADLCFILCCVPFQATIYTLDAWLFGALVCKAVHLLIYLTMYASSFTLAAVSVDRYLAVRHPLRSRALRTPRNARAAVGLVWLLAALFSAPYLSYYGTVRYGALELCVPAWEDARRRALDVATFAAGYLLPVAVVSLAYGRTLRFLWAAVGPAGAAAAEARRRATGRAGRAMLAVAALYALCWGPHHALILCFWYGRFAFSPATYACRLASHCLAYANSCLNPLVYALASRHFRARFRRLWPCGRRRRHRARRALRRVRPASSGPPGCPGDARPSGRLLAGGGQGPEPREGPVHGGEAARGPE
Description: Radioligand binding at cloned human GAL3 receptor. As to conditions: indolones, cloned human receptor; read-out: Ki GalR3. The protocol: The present invention provides for a method of determining the binding affinity of a GAL3 antagonist, wherein the GAL3 antagonist is dissolved in a "suitable solvent". A "suitable solvent" means one which permits the measurement of binding affinity of the GAL3 antagonist to the human GAL3 receptor at concentrations less than 1 µM, preferably less than 100 nM. Examples of solvents include, but are not limited to, DMSO, ethanol, N,N-dimethylacetamide, or water. For indolones, the preferred solvent is 3% DMSO (final concentration in the assay). For pyrimidines, the preferred solvent is 1% ethanol/0.09% polypuronic acid F-127 (final concentration in the assay). For any other type of compounds, the preferred solvent is the solvent which permits the measurement of binding affinity of a GAL3 antagonist at the lowest concentration. Once a suitable solvent is ascertained for the binding assay of the human GAL3 receptor, the same solvent is used in assays to determine the binding affinity at the GAL1 receptor, the serotonin transporter, the norepinephrine transporter, and the dopamine transporter. A solvent of 0.4% DMSO is used in the central monoamine oxidase enzyme assay.
The binding properties of the pyrimidines of the present invention were evaluated at the cloned human galanin receptors, GAL1, GAL2, and GAL3, using protocols described herein.
The binding properties of the indolones of the present invention were evaluated at the cloned human galanin receptors, GAL1, GAL2, and GAL3, using protocols described herein.
LM(tk-) cells were stably transfected with the human GAL1 or GAL3 receptor. CHO cells were stably transfected with the human GAL2 receptor.
cDNAs for the human and rat GAL1, and human and rat GAL3 receptors were transfected with a G-418 resistant gene into the mouse fibroblast LM(tk-) cell line by a calcium phosphate transfection method (Cullen, 1987). Stably transfected cells were selected with G-418. Human and rat GAL2 receptors were similarly transfected into CHO cells.
Membranes were harvested from stably transfected LM(tk-) cells. Adherent cells were washed twice in ice-cold phosphate buffered saline (138 mM NaCl, 8.1 mM Na2HPO4, 2.5 mM KCl, 1.2 mM KH2PO4, 0.9 mM CaCl2, 0.5 mM MgCl2, pH 7.4) and lysed by sonication in ice-cold sonication buffer (20 mM Tris-HCl, 5 mM EDTA, pH 7.7). Large particles and debris were cleared by low speed centrifugation (200 x g, 5 min, 4°C). Membranes were collected from the supernatant fraction by centrifugation (32,000 x g, 18 min, 4°C), washed with ice-cold hypotonic buffer, and collected again by centrifugation (32,000 x g, 18 min, 4°C). The final membrane pellet was resuspended by sonication into a small volume of ice-cold binding buffer (-1 ml for every 5 plates: 10 mM NaCl, 20 mM HEPES, 0.22 mM KH2PO4, 1.26 mM CaCl2, 0.81 mM MgSO4, pH 7.4). Protein concentration was measured by the Bradford method (Bradford, 1976) using Bio-Rad Reagent, with bovine serum albumin as a standard. Membranes were held on ice for up to one hour and used fresh, or flash frozen and stored in liquid nitrogen. Membranes were prepared similarly from CHO cells.
Galanin Recentors: Binding assays were performed according to the following published methods: human GAL3 (PCT International Publication No. WO 98/15570), human GAL1 (PCT International Publication No. WO 95/2260), human GAL2 (PCT International Publication No. WO 97/26853).
Binding data were analyzed using nonlinear regression and statistical techniques available in the GraphPAD Prism package (San Diego, CA). Enzymatic assay data were derived from a standard curve of reference compound data.
Take `O=C1/C(=N\c2ccc3cn[nH]c3c2)c2ccccc2N1c1ccccc1` [Example 301, (3Z)-3-(1H-INDAZOL-6-YLIMINO)-1-PHENYL-1,3-DIHYDRO-2H-INDOL-2-ONE]: the Ki turned out to be 875 nM.
On to `O=C1C(=Nc2ccc(Cl)cc2)c2ccccc2N1c1ccsc1` [Example 292, (3Z)-3-[(4-CHLOROPHENTYL)IMINO]-1-(3-THIENYL)-1,3-DIHYDRO-2H-INDOL-2-ONE], for which the Ki is 34 nM.
Take `O=C1/C(=N\c2ccc(Br)cc2)c2ccccc2N1c1ccsc1` [Example 269, (3Z)-3-[(4-BROMOPHENYL)IMINO]-1-(3-THIENYL)-1,3-DIHYDRO-2H-INDOL-2-ONE]: the Ki came out at 46 nM.
For `O=C1/C(=N\c2ccc(F)c(F)c2)c2ccccc2N1Cc1cccnc1` [Example 276], the Ki was found to be 192 nM.
Same read-out and setting: as for `O=C1/C(=N\c2ccc(F)c(F)c2)c2ccccc2N1c1ccccc1` [Example 285, (3Z)-3-[(3,4-DIFLUOROPHENYL)IMINO]-1-PHENYL-1,3-DIHYDRO-2H-INDOL-2-ONE], the figure is 26 nM.
Same read-out and setting: the same measure for `COc1ccc2c(c1)N(c1ccccc1)C(=O)/C2=N\c1cccc(C(F)(F)F)c1` [Example 303, (3Z)-6-METHOXY-1-PHENYL-3-{[3-(TRIFLUOROMETHYL)PHENYL]IMINO}-1,3-DIHYDRO-2H-INDOL-2-ONE]: 214 nM; for `Cc1nc2cc(N=C3C(=O)N(c4ccccc4)c4ccccc43)ccc2s1` (mixture of isomers) [Example 114, 3-[(2-METHYL-1,3-BENZOTHIAZOL-5-YL)IMINO]-1-PHENYL-1,3-DIHYDRO-2H-INDOL-2-ONE]: 569 nM; for `O=C1/C(=N\c2ccc(I)cc2)c2ccccc2N1c1ccsc1` [Example 262, (3Z)-3-[(4-IODOPHENYL)IMINO]-1-(3-THIENYL)-1,3-DIHYDRO-2H-INDOL-2-ONE]: 46 nM.
As to `Cc1ccc(C(F)(F)F)cc1/N=C1\C(=O)N(c2ccccc2)c2ccccc21` [Example 289, (3Z)-3-{[2-METHYL-5-(TRIFLUOROMETHYL)PHENYL]IMINO}-1-PHENYL-1,3-DIHYDRO-2H-INDOL-2-ONE], the Ki came out at 59 nM.
With `O=C1/C(=N\c2cc(F)cc(F)c2)c2ccccc2N1c1ccsc1` [Example 264, (3Z)-3-[(3,5-DIFLUOROPHENYL)IMINO]-1-(3-THIENYL)-1,3-DIHYDRO-2H-INDOL-2-ONE], the inhibition constant (Ki) is 27 nM.
Turning to `Cc1noc(C)c1CN1C(=O)/C(=N\c2cc(Cl)cc(Cl)c2)c2ccccc21` [Example 280], the inhibition constant Ki was 521 nM.
On the same count and under the same terms, the same measure for `O=C1C(=Nc2cccc(C(F)(F)F)c2)c2ccccc2N1c1ccsc1` (mixture of isomers) [Example 109, 1-(3-THIENYL)-3-{[3-(TRIFLUOROMETHYL)PHENYL]IMINO}-1,3-DIHYDRO-2H-INDOL-2-ONE]: 103 nM; for `Cc1cc(N=C2C(=O)N(c3ccsc3)c3ccccc32)ccc1Cl` [Example 290]: 55 nM.
For the compound `Cc1noc(C)c1CN1C(=O)/C(=N\c2ccc(Cl)c(Cl)c2)c2ccccc21` [Example 255], the Ki is 49 nM.
On the same count and under the same terms, as for `O=C1/C(=N\c2ccc(-c3ccccc3)cc2)c2ccccc2N1c1ccsc1` [Example 265, (3Z)-3-([1,1'-BIPHENYL]-4-YLIMINO)-1-(3-THIENYL)-1,3-DIHYDRO-2H-INDOL-2-ONE], the figure is 80 nM; as for `Cc1cc(/N=C2\C(=O)N(c3ccsc3)c3ccccc32)ccc1Cl` [Example 259], 55 nM.

The same test, now with this note: pyrimidines, cloned human receptor; read-out: Ki GalR3.
With `CN(C)c1cc(Nc2ccc3c(c2)OCO3)nc(N2CCN(c3ccccn3)CC2)n1` [Example 118], the Ki stood at 508 nM.
For `Cc1cc(Nc2cc(N(C)C)nc(N3CCN(c4ccccn4)CC3)n2)ccc1F` [Example 200], the Ki stood at 311 nM.
The same measure, in the same setting: the same measure for `Cc1ccc(Nc2cc(N(C)C)nc(N3CCN(c4ccccn4)CC3)n2)cc1Nc1ccccn1` [Example 242]: 166 nM.
The same measure, in the same setting: as for `Cc1ccc(Nc2cc(N(C)C)nc(N3CCN(Cc4ccccc4)CC3)n2)cc1` [Example 253], the figure is 49 nM.
The same measure, in the same setting: the same measure for `COc1cccc(Nc2cc(N(C)C)nc(N3CCN(c4ccccc4C(F)(F)F)CC3)n2)c1` [Example 246]: 270 nM.
Turning to `CN(C)c1cc(Nc2ccc(OCc3ccccc3)cc2)nc(N2CCN(c3ccccn3)CC2)n1` [Example 117], the Ki is 61 nM.
On the same count and under the same terms, as for `Cc1ccc(Nc2cc(N(C)C)nc(Nc3ccccc3)n2)cc1` [Example 54], the figure is 132 nM.
Still for that read-out and setting: as for `Cc1cc(C)cc(Nc2cc(N(C)C)nc(N3CCN(c4ccccn4)CC3)n2)c1` [Example 214], the figure is 676 nM.
Same read-out and setting: as for `CN(C)c1cc(Nc2ccc(F)cc2)nc(N2CCN(Cc3ccccc3)CC2)n1` [Example 156], the figure is 61 nM.
For `CN(C)c1cc(Nc2ccc(F)c(F)c2)nc(N2CCN(c3ccccn3)CC2)n1` [Example 196], the Ki was 443 nM.
For the compound `COc1cccc(Nc2cc(N(C)C)nc(N(C)CCc3ccccn3)n2)c1` [Example 177], the Ki is 142 nM.
As to `Cc1ccc(Nc2cc(N(C)C)nc(N3CCN(Cc4ccsc4)CC3)n2)cc1` [Example 238], the Ki was 331 nM.
As for `CN(C)c1cc(Nc2ccc3c(c2)CCC3)nc(N2CCN(c3cnccn3)CC2)n1` [Example 180], the Ki came out at 151 nM.
Same read-out and setting: the same measure for `CCCc1ccc(Nc2cc(N(C)C)nc(N3CCN(c4ccccn4)CC3)n2)cc1` [Example 209]: 205 nM.
The same measure, in the same setting: the same measure for `CCC(C)c1ccc(Nc2cc(N(C)C)nc(N3CCN(c4ccccn4)CC3)n2)cc1` (stereo not drawn) [Example 211]: 58 nM.
On the same count and under the same terms, the same measure for `Cc1ccc(Nc2cc(N3CCCCC3)nc(N(C)CCc3c[nH]c4ccccc34)n2)cc1Cl` [Example 16]: 33 nM; for `COc1ccc(Cl)cc1Nc1cc(N(C)C)nc(N2CCN(c3ccccn3)CC2)n1` [Example 220]: 708 nM.
For the compound `CN(C)c1cc(Nc2cccc3c2CCCC3)nc(N2CCN(c3ccccn3)CC2)n1` [Example 122], the Ki worked out at 65 nM.
On to `CN(C)c1cc(Nc2cccc(OC(F)(F)F)c2)nc(N2CCN(c3ccccn3)CC2)n1` [Example 207], for which the Ki came out at 58 nM.
Consider `COc1cccc(Nc2cc(N(C)C)nc(N3CCN(Cc4ccccc4)CC3)n2)c1` [Example 252], for which the Ki was found to be 88 nM.
On the same count and under the same terms, as for `CN(C)c1cc(NC2C3CC4CC(C3)CC2C4)nc(N2CCN(Cc3ccccc3)CC2)n1` (stereo not drawn) [Example 137], the figure is 124 nM; as for `Cc1ccc(Nc2cc(N(C)C)nc(N3CCN(c4ncccc4C#N)CC3)n2)cc1` [Example 241], 261 nM; as for `Cc1ccc(Nc2cc(N(C)C)nc(Nc3ccc(Cl)c(Cl)c3)n2)cc1` [Example 55], 48 nM.
Still for that read-out and setting: as for `CN(C)c1cc(Nc2ccc(C#N)c(Cl)c2)nc(N2CCN(Cc3ccccc3)CC2)n1` [Example 129], the figure is 405 nM; as for `COc1ccccc1CCNc1nc(Nc2ccc(C)cc2)cc(N(C)C)n1` [Example 150], 180 nM.
On to `Cc1ccc(C)c(Nc2cc(N(C)C)nc(N3CCN(c4ccccn4)CC3)n2)c1` [Example 213], for which the Ki was 165 nM.
Turning to `CC1CCC(Nc2cc(N(C)C)nc(N3CCN(Cc4ccccc4)CC3)n2)CC1` (stereo not drawn) [Example 157], the Ki came to 273 nM.
`CCCCCc1ccc(Nc2cc(N(C)C)nc(N3CCN(c4ccccn4)CC3)n2)cc1` [Example 210]: the Ki stood at 58 nM.
Still for that read-out and setting: the same measure for `COc1cccc(Nc2cc(N(C)C)nc(N(C)CCc3ccccc3)n2)c1` [Example 251]: 54 nM.

For the origin of these results see patent publication EP2140864A2 (H. Lundbeck A/S, priority 2001, dated 2002).
